US11272841B2, “Indicator fluids, systems, and methods for assessing movement of substances within, to or from a cerebrospinal fluid, brain or spinal cord compartment of a cranio-spinal cavity of a human” (BRAINWIDESOLUTIONS AS, priority 2017, dated 2022)

Assay: Percentage change in normalized T1 signal unit ratios in FreeSurfer-segmented brain regions after intrathecal gadobutrol (Table 5, FIG. 14e-h)
Format: in vivo, human
Conditions: for Percentage change in signal unit ratios: mean ± SD
Description: The alignment of longitudinal data is illustrated in FIG. 14c-d. When repeated MRIs are obtained proper alignment is necessary for use of segmentation tools. Otherwise, it is not possible to examine how signals within defined regions of interest change over time. […] The co-registered MRI 1409 show no good co-registration. In FIG. 14d is shown coronal T1 MRIs at Time 1 1410 and Time 2 1411, including co-registered MRIs 1412. In this latter case proper alignment is obtained. Methodology for alignment is established from prior art, as is methodology for segmentation of MRI acquisitions. The inventors have used the FreeSurfer software (version 6.0) (http://surfer.nmr.mgh.harvard.edu/) for segmentation and parcellation, and to measure how an indicator fluid present within CSF (the MRI contrast agent gadobutrol) changed the T1 SU. In this case, the MRI contrast agent was used as CSF tracer. The FreeSurfer software utilizes automated Talairach transformation 1402, and allows for segmentation of a wide range of brain regions, including the subcortical white matter and deep gray matter volumetric structures (including hippocampus, amygdala, caudate, putamen, ventricles).
Using prior art methodology for alignment and segmentation, changes in indication signals over time may be determined. This is further illustrated in Table 5. The results are from 8 individuals who underwent MRI for tentative idiopathic intracranial hypotension due to CSF leakage. A CSF leakage was identified in 3/8 individuals. Otherwise the individuals were healthy. Table 5 presents the percentage change in normalized T1 signals, i.e. indication signal ratios, over time, as compared to T1 weighted MRI without CSF tracer present. […] The MRI signal increase was significant at all main locations (Table 5). The determination of signal unit ratios was described with reference to FIG. 7.
Each image acquisition lasted 6 minutes and 29 seconds.
The inventors determined percentage change in signal units when indicator fluid was present in the CSF compartment, as compared to a point of time without any indicator fluid within the CSF compartment. Four different regions were examined, segmented using FreeSurfer, namely CSF (FIG. 14e), entorhinal cortex (FIG. 14f), hippocampus (FIG. 14g) and Limbic structures (FIG. 14h). The two cohorts of individuals included reference subjects who were close to healthy and a population with a subtype of dementia. For the CSF compartment (FIG. 14e) is shown percentage change in signal unit ratios 1413 versus time 1414, including trend plots for reference subjects 1415 and individuals with dementia 1416. […] Peak for reference subjects occurred after 6-9 hours while after 24 hours for the dementia population.

Q: Which results are given for O=C([O-])CN1CCN(CC(=O)[O-])CCN([C@H](CO)[C@H](O)CO)CCN(CC(=O)[O-])CC1.[Gd+3] (racemic) [gadobutrol]?
A: Percentage change in signal unit ratios (Basal ganglia, 1.5-2 hours): −3 ± 8%; Percentage change in signal unit ratios (Basal ganglia, 2-4 hours): −6 ± 14%; Percentage change in signal unit ratios (Basal ganglia, 4-6 hours): 1 ± 25%; Percentage change in signal unit ratios (Basal ganglia, 6-9 hours): −4 ± 14%; Percentage change in signal unit ratios (Basal ganglia, 24 hours): 4 ± 18%; Time of peak percentage change in signal unit ratios (CSF (FIG. 14e), reference subjects and dementia individuals): 6 to 9 h; Percentage change in signal unit ratios (CSF [24], 1.5-2 hours after intrathecal gadobutrol, 8 individuals): 16 ± 20%; Percentage change in signal unit ratios (CSF [24], 2-4 hours): 101 ± 116%; Percentage change in signal unit ratios (CSF [24], 4-6 hours): 354 ± 309%; Percentage change in signal unit ratios (CSF [24], 6-9 hours): 500 ± 421%; Percentage change in signal unit ratios (CSF [24], 24 hours): 157 ± 164%; Percentage change in signal unit ratios (Cerebellar cortex, 1.5-2 hours): 6 ± 6%; Percentage change in signal unit ratios (Cerebellar cortex, 2-4 hours): 12 ± 27%; Percentage change in signal unit ratios (Cerebellar cortex, 4-6 hours): 45 ± 58%; Percentage change in signal unit ratios (Cerebellar cortex, 6-9 hours): 67 ± 80%; Percentage change in signal unit ratios (Cerebellar cortex, 24 hours): 53 ± 47%; Percentage change in signal unit ratios (Cerebellar white matter, 1.5-2 hours): 1 ± 9%; Percentage change in signal unit ratios (Cerebellar white matter, 2-4 hours): −3 ± 14%; Percentage change in signal unit ratios (Cerebellar white matter, 4-6 hours): 3 ± 23%; Percentage change in signal unit ratios (Cerebellar white matter, 6-9 hours): 2 ± 19%; Percentage change in signal unit ratios (Cerebellar white matter, 24 hours): 15 ± 23%; Percentage change in signal unit ratios (Cerebral cortex (grey matter), 1.5-2 hours): −3 ± 7%; Percentage change in signal unit ratios (Cerebral cortex (grey matter), 2-4 hours): −1 ± 15%; Percentage change in signal unit ratios (Cerebral cortex (grey matter), 4-6 hours): 26 ± 44%; Percentage change in signal unit ratios (Cerebral cortex (grey matter), 6-9 hours): 44 ± 50%; Percentage change in signal unit ratios (Cerebral cortex (grey matter), 24 hours): 52 ± 54%; Percentage change in signal unit ratios (Cerebral white matter, 1.5-2 hours): −3 ± 9%; Percentage change in signal unit ratios (Cerebral white matter, 2-4 hours): −1 ± 18%; Percentage change in signal unit ratios (Cerebral white matter, 4-6 hours): 26 ± 40%; Percentage change in signal unit ratios (Cerebral white matter, 6-9 hours): 34 ± 46%; Percentage change in signal unit ratios (Cerebral white matter, 24 hours): 27 ± 33%; Percentage change in signal unit ratios (Hippocampus, amygdala, accumbens, entorhinal, 1.5-2 hours): −2 ± 7%; Percentage change in signal unit ratios (Hippocampus, amygdala, accumbens, entorhinal, 2-4 hours): −1 ± 15%; Percentage change in signal unit ratios (Hippocampus, amygdala, accumbens, entorhinal, 4-6 hours): 28 ± 38%; Percentage change in signal unit ratios (Hippocampus, amygdala, accumbens, entorhinal, 6-9 hours): 43 ± 43%; Percentage change in signal unit ratios (Hippocampus, amygdala, accumbens, entorhinal, 24 hours): 42 ± 39%; Percentage change in signal unit ratios (Thalamus, 1.5-2 hours): −2 ± 8%; Percentage change in signal unit ratios (Thalamus, 2-4 hours): −4 ± 15%; Percentage change in signal unit ratios (Thalamus, 4-6 hours): 5 ± 26%; Percentage change in signal unit ratios (Thalamus, 6-9 hours): 2 ± 18%; Percentage change in signal unit ratios (Thalamus, 24 hours): 11 ± 21%; Time of peak percentage change in signal unit ratios (entorhinal cortex, dementia population): 24 h; Time of peak percentage change in signal unit ratios (entorhinal cortex, reference subjects): 6 to 9 h; Time of peak percentage change in signal unit ratios (hippocampus, dementia cohort): 24 h; Time of peak percentage change in signal unit ratios (hippocampus, reference subjects): 6 to 9 h; Time of peak percentage change in signal unit ratios (limbic structures, dementia cohort): 24 h; Time of peak percentage change in signal unit ratios (limbic structures, reference subjects): 6 to 9 h
